# Reference: PubChem BioAssay AID2060899 (Molecular Pharmacology Branch, DTP, NCI, 2025)
# Tested on: 565726-208-R1-J5-PDC complex spheroids, growth inhibition
# Assay: Anticancer human tumor 565726-208-R1-J5-PDC patient-derived pancreatic adenocarcinoma cell line growth inhibition [RAS]
# Details: for IC50: curve of first compound; for viability, T/C: stronger effect = lower value
# Description: RAS pathway inhibitors in Combinations in Complex Spheroids
# A high-throughput screen of multi-cell type tumor spheroids was designed to identify active combinations of RAS pathway inhibitors and targeted small molecules. Complex spheroids include a stromal component modeled by human endothelial cells (HUVEC) and fibroblasts modeled by human mesenchymal stem cells (MSCs). The concentration ranges selected for each drug and investigational agent were based upon clinically achievable concentrations if the clinical Cmax of the agent was known.
# Compounds. The drugs and investigational agents: abemaciclib (NSC768073), cobimetinib (NSC768068), divarasib (GDC6063, NSC841802), docetaxel (NSC628503), GDC-1971 (RLY-1971, NSC841576), gemcitabine (NSC613327), inavolisib (NSC800729), ipatasertib (NSC767898), KB-0742 (NSC834161), MRTX-1133 (NSC836407), osimertinib (NSC779217), RMC-4630 (NSC839698), RMC-6236 (NSC851965), RMC-6291 (NSC852671), Ro-3306 (NSC812927), sapanisertib (NSC764658), SN-38 (NSC673596), staurosporine (NSC755774), SY5609 (NSC837396), and tovorafenib (DAY101, NSC766906), were obtained from the National Cancer Institute (NCI) Developmental Therapeutics Program Chemical Repository. The FDA-approved anticancer drug set is available from the NCI Developmental Therapeutics Program. […] The stock solutions were prepared in dimethyl sulfoxide (DMSO, Sigma-Aldrich, St. Louis, MO, cat. D2650) at 800-fold the tested concentration and stored at -70 degrees C prior to their use. All drugs and investigational agents were tested over a range starting from a high concentration at or near the clinical Cmax and decreasing in half-log increments. If the clinical Cmax for an agent had not been determined, the highest concentration tested was 10 microM.
# Cell Culture. All cells were maintained in an incubator at 37 degrees C and 5% CO2 with 95% humidity. The PDC lines were cultured according to standard operating procedures established by the NCI PDMR. All PDCs were thawed and cultured in Matrigel-coated flasks prepared with a working solution of 1X Ham's F-12 nutrient mix, without supplementation (Invitrogen, Waltham, MA, cat. 11765054), 100 U/mL penicillin-streptomycin (Invitrogen, cat. 15140122), and 2.5% Matrigel (Corning Inc., Corning, NY, cat. 354248) for the first three passages. The 362531-283-R-J2-PDC and 782815-120-R-J1-PDC lines were cultured in 6C/Colon 1B media, which includes advanced DMEM/F-12 (Thermo Fisher Scientific, cat. 12634028), 10 mM HEPES (Thermo Fisher Scientific, cat. 15630080), 1X GlutaMAX supplement (Thermo Fisher Scientific, cat. 35050061), 0.1 mg/mL primocin (InvivoGen, San Diego, CA, cat. ant-pm-2), 10% defined fetal bovine serum, heat inactivated (HyClone Laboratories Inc., Logan, UT, cat. SH30070.03HI), 50% L-WRN conditioned media (ATCC, cat. CRL-3276), 1.25 mM N-Acetyl-L-cysteine (Sigma-Aldrich, cat. A9165), 10 mM nicotinamide (Sigma-Aldrich, cat. N0636), 1X B-27 supplement (Thermo Fisher Scientific, cat. 17504044), 1X N-2 supplement (Thermo Fisher Scientific, cat. 17502048), 50 ng/mL human EGF (Thermo Fisher Scientific, cat. PHG0311), and 10 microM Y-27632 dihydrochloride (Tocris Bioscience, cat. 1254). The K12877-001-R-J1-PDC line was cultured in 6I media, which includes all 6C/Colon 1B media plus 10 ng/mL human FGF-10 (PeproTech, cat. 100-26), 1 ng/mL human FGF-2 (PeproTech, cat. 100-18B), 1 µM prostaglandin E2 (Tocris Bioscience, cat. 2296), […] hydrocortisone (Sigma-Aldrich, cat. H4001), and […] bovine insulin (Sigma-Aldrich, cat. I6634). The K86415-001-R-J1-PDC line was cultured in 6D media, which includes all 6C/Colon 1B media components minus the L-WRN conditioned media. The 485176-168-R4-J1-PDC was cultured in PANC media, which includes all 6C/Colon 1B media plus 100 ng/mL human FGF-10 (PeproTech, cat. 100-26), 500 nM SB-431542 (Selleckchem, cat. S1067), and 10 nM gastrin (Tocris Bioscience, cat. 3006). […]
# 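Also: spheroids exposed to compounds for seven days before readout.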
# 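For viability, T/C in this document: 100% = DMSO vehicle control viability.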
smiles,measurement,setting,value
CCC(CC)c1cc(NC2CCC(N)C2)n2nccc2n1 (configuration not stated) + CCn1c(-c2cccnc2C(C)OC)c2c3cc(ccc31)N1CCOC(CC(NC(=O)C(C(C)C)N(C)C(=O)C3(F)CCN(C(=O)C#CC(C)(C)N(C)C)CC3)C(=O)N3CCCC(N3)C(=O)OCC(C)(C)C2)C1,IC50,second compound 0.000949 µM,1430 nM
same,IC50,second compound 0.003 µM,1490 nM
same,IC50,second compound 0.00949 µM,1480 nM
same,IC50,second compound 0.03 µM,1380 nM
same,IC50,second compound 0.0949 µM,1340 nM
same,IC50,second compound 0.3 µM,1040 nM
same,"viability, T/C","second compound 0.000949 µM, first compound 0.0316 µM",106%
same,"viability, T/C","second compound 0.000949 µM, first compound 0.1 µM",103%
same,"viability, T/C","second compound 0.000949 µM, first compound 0.316 µM",101%
same,"viability, T/C","second compound 0.000949 µM, first compound 1 µM",72%
same,"viability, T/C","second compound 0.000949 µM, first compound 3.16 µM",0.76%
same,"viability, T/C","second compound 0.000949 µM, first compound 10 µM",0.94%
same,"viability, T/C","second compound 0.003 µM, first compound 0.0316 µM",104%
same,"viability, T/C","second compound 0.003 µM, first compound 0.1 µM",104%
same,"viability, T/C","second compound 0.003 µM, first compound 0.316 µM",115%
same,"viability, T/C","second compound 0.003 µM, first compound 1 µM",76.4%
same,"viability, T/C","second compound 0.003 µM, first compound 3.16 µM",0.77%
same,"viability, T/C","second compound 0.003 µM, first compound 10 µM",0.9%
same,"viability, T/C","second compound 0.00949 µM, first compound 0.0316 µM",112%
same,"viability, T/C","second compound 0.00949 µM, first compound 0.1 µM",105%
same,"viability, T/C","second compound 0.00949 µM, first compound 0.316 µM",101%
same,"viability, T/C","second compound 0.00949 µM, first compound 1 µM",74.9%
same,"viability, T/C","second compound 0.00949 µM, first compound 3.16 µM",0.96%
same,"viability, T/C","second compound 0.00949 µM, first compound 10 µM",0.75%
same,"viability, T/C","second compound 0.03 µM, first compound 0.0316 µM",108%
same,"viability, T/C","second compound 0.03 µM, first compound 0.1 µM",109%
same,"viability, T/C","second compound 0.03 µM, first compound 0.316 µM",115%
same,"viability, T/C","second compound 0.03 µM, first compound 1 µM",68.9%
same,"viability, T/C","second compound 0.03 µM, first compound 3.16 µM",0.82%
same,"viability, T/C","second compound 0.03 µM, first compound 10 µM",1.41%
same,"viability, T/C","second compound 0.0949 µM, first compound 0.0316 µM",92.9%
same,"viability, T/C","second compound 0.0949 µM, first compound 0.1 µM",109%
same,"viability, T/C","second compound 0.0949 µM, first compound 0.316 µM",94.7%
same,"viability, T/C","second compound 0.0949 µM, first compound 1 µM",66.9%
same,"viability, T/C","second compound 0.0949 µM, first compound 3.16 µM",0.68%
same,"viability, T/C","second compound 0.0949 µM, first compound 10 µM",0.5%
same,"viability, T/C","second compound 0.3 µM, first compound 0.0316 µM",78.5%
same,"viability, T/C","second compound 0.3 µM, first compound 0.1 µM",88.7%
same,"viability, T/C","second compound 0.3 µM, first compound 0.316 µM",96.4%
same,"viability, T/C","second compound 0.3 µM, first compound 1 µM",51.9%
same,"viability, T/C","second compound 0.3 µM, first compound 3.16 µM",0.87%
same,"viability, T/C","second compound 0.3 µM, first compound 10 µM",1.78%
